Source: article PMC7955127, “Preclinical small molecule WEHI-7326 overcomes drug resistance and elicits response in patient-derived xenograft models of human treatment-refractory tumors” (Cell Death & Disease, 2021)

Experiments:
LoVo = assay: Cell growth inhibition assay, LoVo; format: cell-based; details: Homo sapiens, colon carcinoma, 72 h viability assay, CellTiterGlo, mean of 3 ± SEM, read-out: IC50 (inhibition of cellular proliferation)
Experimental: (§1) Cells were plated at a density of between 500 to 5000 cells per well for adherent cell lines depending on doubling time, and 15,000 cells per well for lymphoblastic leukemia cell lines, in a 96-well plate in 200 μl of growth media. Plates were incubated overnight at 37 °C before adding the inhibitors. Inhibitors were serially diluted from the stock solutions in complete medium and added to the cells. […] Cell viability was assessed by the AlamarBlue (Invitrogen) or CellTiterBlue/Glo (Promega) method according to manufacturer’s instructions. The curve fits and IC50 values were generated in PRISM (GraphPad, San Diego, CA).

CEM dEpoB30 = assay: Cell growth inhibition assay, CEM dEpoB30; format: cell-based; details: Homo sapiens; CEM dEpoB30, leukemia (taxane resistant, β-tubulin mutation); 72 h, Alamar Blue; mean of 3 ± SEM; read-out: IC50 (inhibition of cellular proliferation)
Experimental: as §1
Parental human lymphoblastic leukemia cells (CEM) and their drug resistant derivatives (dEpoB30 and dEpoB300) were cultured in the presence of increasing amounts of WEHI-7326, paclitaxel or epothilone B. Cell survival was determined as described in Experimental Procedures. Shown are mean of 3 experiments +/- SEM. Dose response curves were fitted in PRISM using non-linear regression (4 parameter logistic) to calculate IC50 values.

24 T TNBC PDX = assay: TNBC PDX model 24T; format: in vivo, NOD-SCID-IL2Rγc–/– mice
Experimental: Cohorts of about 30 female mice were seeded with thawed single cell suspensions of early passage human breast tumors (passage 2 or 3). Briefly, 150,000–250,000 cells were resuspended in 10 µl of transplantation buffer (50% fetal calf serum, 10% of a 0.04% trypan blue solution and 40% PBS) and growth-factor-reduced Matrigel [BD] at a ratio of 3:1, and injected into the cleared mammary fat pads of 3- or 4-week-old NOD-SCID-IL2Rγc–/– female mice. Mice were monitored for tumor development three times weekly and tumor size measured using digital Vernier calipers. Tumor volume was estimated by measuring the minimum and maximum tumor diameters using the formula: (minimum diameter)^2 x (maximum diameter)/2. Once tumors arose, mice were randomized into treatment arms. Treatment was initiated when the tumor volume reached 80–120 mm^3. Randomization and tumor measurements were managed using the Study Director software (v 3.0, studylog). Mice were sacrificed at the first measurement where tumor volume exceeded 600 mm^3, or if their health deteriorated for reasons other than disease progression or drug toxicity (censored event).
Mice were treated with either docetaxel (10 mg/kg; i.p.; once), cisplatin (4 mg/kg; i.p.; once) or WEHI-7326 (20 mg/kg; twice a week (Monday and Thursday); i.v.). Vehicle treated mice were administered with the vehicle for WEHI-7326. Docetaxel was resuspended at 2 mg/ml in PBS:Tween-80:ethanol = 90:5:5 (v/v/v). WEHI-7326 was resuspended at 2 mg/ml in saline.

[1] = system: COG-N-440x neuroblastoma PDX; assay: High-risk neuroblastoma PDX COG-N-440x; format: in vivo, NSG mice; details: COG-N-440x PDX; 20 mg/kg i.v. twice weekly
Experimental: (§2) All animal studies were performed in accordance with the guidelines approved by University of New South Wales Animal Care and Ethics Committee (ACEC 17/53B) and in accordance with the requirements of the Australian Code for the Care and Use of Animals for Scientific Purposes. PDX models COG-N-440x and COG-N-496x were obtained from the Childhood Cancer Repository, Texas Tech University Health Sciences Center in Lubbock, TX, USA. 6–8 week old female NSG mice were engrafted by subcutaneous injection with 1 × 10^6 freshly thawed PDX tumor cells into one flank in a mixture of 100 μl RPMI-1640 and 100 μl Matrigel. Mice were monitored for tumor development three times weekly and tumor size measured using digital Vernier calipers. Treatments commenced when tumors reached 50 mm^3, following randomization into treatment arms. […] Mice were treated with either vincristine (0.5 mg/kg, once weekly i.p. in sterile saline for up to 5 weeks), WEHI-7326 (20 mg/kg; twice weekly i.v. in sterile saline for up to 5 weeks) or vehicle (as for WEHI-7326). For the Th-MYCN transgenic mouse model, spontaneous tumor growth in mice homozygous for the MYCN transgene was assessed by abdominal palpation at least twice a week. Treatments commenced once a small palpable tumor (~5 mm) was detected, following randomization to treatment arms. Mice were euthanized upon detection of an abdominal tumor of ~1 cm in diameter. […]

[2] = system: spontaneous neuroblastoma in Th-MYCN transgenic mice; assay: Th-MYCN transgenic mouse model of neuroblastoma; format: in vivo; details: WEHI-7326 20 mg/kg i.v. twice weekly, standard-of-care combinations daily i.p. for 5 days
Experimental: as §2

[3] = system: H1437 (non-small cell lung carcinoma) xenograft; assay: H1437 tumor xenograft in nude mice; format: in vivo, BALB/c nude mice; details: i.p. three times weekly
Experimental: Tumor cell lines LIM2537, U87MGΔ2–7EGFR or H1437 were collected by trypsinization, counted and injected at 5 × 10^6 cells/ site subcutaneously on both flanks of BALB/c nude mice. Treatment with vehicle control or WEHI-7326 at given dose was initiated after 5 days. Drug or vehicle (100 μl) was injected intraperitoneally three times weekly. Control group and treatment group consisted of 8 mice each. Tumors were measured twice weekly with calipers. Tumor volumes were estimated using the modified ellipsoid formula V = 1/2 (length × width^2). The experiments were terminated when tumors in the control group started ulcerating or exceeded 17 mm in length, in line with the LICR/DoS Animal Ethics Committee guidelines (11/05 A).

COc1ccc(CNc2nc(NCc3ccc(CN)cc3)nc(NN3CC(=O)NC3=O)n2)cc1 [WEHI-7326]
IC50 (LoVo): 42.2 ± 9.9 nM | IC50 (CEM dEpoB30): 1.67 ± 0.04 nM | Adverse effects in treatment arm (24 T TNBC PDX; 24 T PDX mice, 20 mg/kg i.v. twice a week, n = 7): 1 sick, 1 found dead, 1 with back leg paralysis | Survival time (24 T TNBC PDX; 24 T PDX, docetaxel 10 mg/kg i.p. once, WEHI-7326 20 mg/kg i.v. biweekly): 45 days | Median survival [1]: 39 days | Median survival [2]: 44 days | Tumor growth [3]: effective in reducing tumor growth
